According to ChEMBL document CHEMBL3414561, “Discovery of 4'-chloromethyl-2'-deoxy-3',5'-di-O-isobutyryl-2'-fluorocytidine (ALS-8176), a first-in-class RSV polymerase inhibitor for treatment of human respiratory syncytial virus infection” (J Med Chem, 2015):
The source made the active and inactive calls. No cut-off for these calls is given here.

Experiments:
[1] = Clearance in Non-naive cynomolgus monkey at 5 mg/kg, iv; assay type: ADME, organism-based, Macaca fascicularis; design: dose 5 mg/kg, route intravenous; settings: in vivo
[2] = tested on: Respiratory syncytial virus; experiment: Antiviral activity against Respiratory syncytial virus subgenomic replicon system in 395 HeLa cells assessed as reduction in viral replication after 7 days by renilla luciferase assay; assay type: functional, organism-based; settings: human respiratory syncytial virus, 168 h
[3] = Drug metabolism in human nasal cells assessed as nucleotide 5'-triphosphate level measured per million cells at 50 uM after 1 to 5 days by LC/MS/MS analysis; assay type: ADME, cell-based
[4] = Drug uptake in Non-naive cynomolgus monkey assessed as lung NMP level at 5 mg/kg, iv after 1 hr; assay type: ADME, organism-based, Macaca fascicularis; design: dose 5 mg/kg, route intravenous; settings: in vivo, read-out: Drug uptake
[5] = Cytotoxicity against human HeLa cells assessed as cell viability by CellTiter-Glo luminescent assay; assay type: cell-based
[6] = Half life in male syrian golden hamster at 5 mg/kg, iv; assay type: ADME, organism-based, Mesocricetus auratus; design: dose 5 mg/kg, route intravenous; settings: in vivo
[7] = tested on: Syrian golden hamster; experiment: Ratio of uridine metabolite to parent cytidine in male syrian golden hamster at 5 mg/kg, iv; assay type: ADME, organism-based, Mesocricetus auratus; design: dose 5 mg/kg, route intravenous; settings: in vivo
[8] = Drug uptake in male syrian golden hamster assessed as lung NMP level at 5 mg/kg, iv after 1 hr; assay type: ADME, organism-based, Mesocricetus auratus; design: dose 5 mg/kg, route intravenous; settings: in vivo, read-out: Drug uptake
[9] = Drug metabolism in human Hep2 cells assessed as nucleotide 5'-triphosphate level measured per million cells at 50 uM after 1 to 5 days by LC/MS/MS analysis; assay type: ADME, cell-based; settings: hep-2, 50 µM
[10] = Clearance in Sprague-Dawley rat at 5 mg/kg, iv; assay type: ADME, organism-based; design: dose 5 mg/kg, route intravenous; settings: in vivo
[11] = Drug uptake in male syrian golden hamster assessed as lung NTP level at 5 mg/kg, iv after 1 hr; assay type: ADME, organism-based, Mesocricetus auratus; design: dose 5 mg/kg, route intravenous; settings: in vivo, read-out: Drug uptake
[12] = Clearance in male syrian golden hamster at 5 mg/kg, iv; assay type: ADME, organism-based, Mesocricetus auratus; design: dose 5 mg/kg, route intravenous; settings: in vivo
[13] = AUCinf in Non-naive cynomolgus monkey at 5 mg/kg, iv; assay type: ADME, organism-based, Macaca fascicularis; design: time infinity, dose 5 mg/kg, route intravenous; settings: plasma
[14] = Volume of distribution at steady state in male syrian golden hamster at 5 mg/kg, iv; assay type: ADME, organism-based, Mesocricetus auratus; design: dose 5 mg/kg, route intravenous; settings: in vivo, read-out: Vdss
[15] = tested on: Cynomolgus monkey; experiment: Ratio of uridine metabolite to parent cytidine in Non-naive cynomolgus monkey at 5 mg/kg, iv; assay type: ADME, organism-based, Macaca fascicularis; design: dose 5 mg/kg, route intravenous; settings: in vivo
[16] = Drug uptake in Non-naive cynomolgus monkey assessed as lung NTP level at 5 mg/kg, po 4'-chloromethyl-2'-deoxy-2'-fluorocytidine equivalent dose after 12 hrs; assay type: ADME, organism-based, Macaca fascicularis; design: dose 5 mg/kg, route oral; settings: in vivo, read-out: Drug uptake
[17] = Volume of distribution at steady state in Sprague-Dawley rat at 5 mg/kg, iv; assay type: ADME, organism-based; design: dose 5 mg/kg, route intravenous; settings: in vivo, read-out: Vdss
[18] = tested on: A549; experiment: Drug metabolism in human A549 cells assessed as nucleotide 5'-triphosphate level measured per million cells at 50 uM after 1 to 5 days by LC/MS/MS analysis; assay type: ADME, cell-based; settings: a549, 50 µM
[19] = AUCinf in Sprague-Dawley rat at 5 mg/kg, iv; assay type: ADME, organism-based; design: time infinity, dose 5 mg/kg, route intravenous; settings: plasma
[20] = Drug uptake in Non-naive cynomolgus monkey assessed as lung NMP level at 5 mg/kg, po 4'-chloromethyl-2'-deoxy-2'-fluorocytidine equivalent dose after 12 hrs; assay type: ADME, organism-based, Macaca fascicularis; design: dose 5 mg/kg, route oral; settings: in vivo, read-out: Drug uptake
[21] = Half life in Non-naive cynomolgus monkey at 5 mg/kg, iv; assay type: ADME, organism-based, Macaca fascicularis; design: dose 5 mg/kg, route intravenous; settings: in vivo
[22] = AUCinf in male syrian golden hamster at 5 mg/kg, iv; assay type: ADME, organism-based, Mesocricetus auratus; design: time infinity, dose 5 mg/kg, route intravenous; settings: plasma
[23] = Drug metabolism in human normal bronchial epithelial cells assessed as nucleotide 5'-triphosphate level measured per million cells at 50 uM after 1 to 5 days by LC/MS/MS analysis; assay type: ADME, cell-based; settings: epithelial cell
[24] = Drug uptake in Non-naive cynomolgus monkey assessed as lung NTP level at 5 mg/kg, iv after 1 hr; assay type: ADME, organism-based, Macaca fascicularis; design: dose 5 mg/kg, route intravenous; settings: in vivo, read-out: Drug uptake
[25] = Half life in Sprague-Dawley rat at 5 mg/kg, iv; assay type: ADME, organism-based; design: dose 5 mg/kg, route intravenous; settings: in vivo
[26] = Volume of distribution at steady state in Non-naive cynomolgus monkey at 5 mg/kg, iv; assay type: ADME, organism-based, Macaca fascicularis; design: dose 5 mg/kg, route intravenous; settings: in vivo, read-out: Vdss
[27] = target: DNA polymerase beta (Homo sapiens) (UniProt P06746); experiment: Inhibition of human DNA-dependent DNA polymerase beta using calf thymus DNA/[3H]dTTP as substrate by microplate scintillation reader; settings: concentration not given here
[28] = organism: Homo sapiens; experiment: Inhibition of human DNA-dependent DNA polymerase alpha using calf thymus DNA/[3H]dTTP as substrate by microplate scintillation reader; settings: concentration not given here
[29] = organism: Homo sapiens; experiment: Inhibition of human DNA-directed RNA polymerase 2 using cytomegalovirus DNA fragment as substrate; settings: concentration not given here
[30] = organism: Homo sapiens; experiment: Inhibition of human DNA-dependent DNA polymerase gamma using calf thymus DNA/[3H]dTTP as substrate by microplate scintillation reader; settings: concentration not given here
[31] = target: DNA-directed RNA polymerase, mitochondrial (Homo sapiens) (UniProt O00411); experiment: Inhibition of human mitochondrial RNA polymerase assessed as 13-mer product using [33P]RNA/DNA primer/templates used by […] gel electrophoresis
DNA-directed RNA polymerase, mitochondrial (Homo sapiens), sequence (O00411 whole entry): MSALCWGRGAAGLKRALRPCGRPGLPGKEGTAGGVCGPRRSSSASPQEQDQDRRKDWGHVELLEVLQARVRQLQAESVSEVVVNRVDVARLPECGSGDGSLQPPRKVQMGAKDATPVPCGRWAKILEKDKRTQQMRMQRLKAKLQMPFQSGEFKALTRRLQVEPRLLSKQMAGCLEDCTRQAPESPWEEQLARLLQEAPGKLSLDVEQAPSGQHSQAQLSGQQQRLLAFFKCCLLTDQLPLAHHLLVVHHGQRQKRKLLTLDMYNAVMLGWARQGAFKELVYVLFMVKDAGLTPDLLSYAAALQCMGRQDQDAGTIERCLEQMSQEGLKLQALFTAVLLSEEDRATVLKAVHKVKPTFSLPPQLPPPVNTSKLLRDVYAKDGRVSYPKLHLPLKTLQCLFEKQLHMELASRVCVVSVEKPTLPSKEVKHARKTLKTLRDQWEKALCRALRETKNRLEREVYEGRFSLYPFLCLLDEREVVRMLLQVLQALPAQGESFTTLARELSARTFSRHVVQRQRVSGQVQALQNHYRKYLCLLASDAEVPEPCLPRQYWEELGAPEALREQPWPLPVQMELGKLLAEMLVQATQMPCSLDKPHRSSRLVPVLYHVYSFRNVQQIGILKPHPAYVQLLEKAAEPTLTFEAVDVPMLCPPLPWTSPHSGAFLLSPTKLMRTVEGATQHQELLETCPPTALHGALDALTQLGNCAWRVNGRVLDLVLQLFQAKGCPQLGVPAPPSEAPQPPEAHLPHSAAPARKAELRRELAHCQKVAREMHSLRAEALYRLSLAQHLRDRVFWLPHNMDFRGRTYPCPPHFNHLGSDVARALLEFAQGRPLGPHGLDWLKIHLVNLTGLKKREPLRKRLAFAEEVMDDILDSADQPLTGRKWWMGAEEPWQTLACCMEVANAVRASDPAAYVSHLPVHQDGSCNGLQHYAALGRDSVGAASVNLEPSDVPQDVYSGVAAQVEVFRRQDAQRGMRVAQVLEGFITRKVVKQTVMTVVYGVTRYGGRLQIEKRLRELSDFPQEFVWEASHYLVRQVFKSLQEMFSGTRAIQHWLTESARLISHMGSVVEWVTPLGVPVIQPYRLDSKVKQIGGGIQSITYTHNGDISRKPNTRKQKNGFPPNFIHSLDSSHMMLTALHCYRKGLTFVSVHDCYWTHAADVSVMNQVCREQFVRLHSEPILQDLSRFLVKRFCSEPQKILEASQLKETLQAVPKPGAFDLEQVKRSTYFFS

[32] = Inhibition of Respiratory syncytial virus RNA polymerase in crude RSV RNP complex assessed as inhibition of [33P]CMP incorporation into RNA chain
[33] = tested on: Respiratory syncytial virus; experiment: Inhibition of Respiratory syncytial virus RNA polymerase in crude RSV RNP complex assessed as inhibition of [33P]CMP incorporation into RNA chain at 30 uM
[34] = target: DNA-directed RNA polymerase, mitochondrial (Homo sapiens) (UniProt O00411); experiment: Binding affinity to human mitochondrial RNA polymerase assessed as compound incorporation using [33P]RNA/DNA primer/templates used by […] gel electrophoresis
[35] = tested on: Respiratory syncytial virus; experiment: Inhibition of Respiratory syncytial virus RNA polymerase in crude RSV RNP complex assessed as inhibition of [33P]CMP incorporation into RNA chain at 10 uM

Nc1ccn([C@@H]2O[C@@](CO)(CCl)[C@@H](O)[C@H]2F)c(=O)n1 [ALS-8112]
clearance [1]: 28 mL/min/kg
EC50 [2]: 0.15 µM
Drug metabolism [3]: 185 pmol
concentration [4]: 9920 nM
CC50 [5]: > 100 µM
half-life [6]: 3.98 h
Ratio [7]: 0.025
concentration [8]: 287 nM
Drug metabolism [9]: 94.7 pmol
clearance [10]: 31.8 mL/min/kg
concentration [11]: 70.9 nM
clearance [12]: 28.6 mL/min/kg
AUC(0-inf) [13]: 2980 ng·h/mL
Vd [14]: 2.3 L/kg
Ratio [15]: 0.48
concentration [16]: 185 nM
Vd [17]: 4.1 L/kg
Drug metabolism [18]: 137 pmol
AUC(0-inf) [19]: 2670 ng·h/mL
concentration [20]: 254 nM
half-life [21]: 5.44 h
AUC(0-inf) [22]: 3230 ng·h/mL
Drug metabolism [23]: 581 pmol
concentration [24]: 4060 nM
half-life [25]: 6.01 h
Vd [26]: 3 L/kg

CC(C)[C@H](N)C(=O)O[C@H]1[C@@H](F)[C@H](n2ccc(N)nc2=O)O[C@@]1(CO)CCl
EC50 [2]: 0.06 µM
CC50 [5]: > 100 µM
concentration [16]: 915 nM
concentration [20]: 861 nM

[N-]=[N+]=N[C@]1(COP(=O)(O)OP(=O)(O)OP(=O)(O)O)O[C@@H](n2ccc(N)nc2=O)C(F)(F)[C@@H]1O
inhibition [27]: < 50%
inhibition [28]: < 50%
inhibition [29]: < 50%
inhibition [30]: < 50%
inhibition [31]: inactive
IC50 [32]: 0.3 µM

Nc1ccn([C@@H]2O[C@](CCl)(COP(=O)(O)OP(=O)(O)OP(=O)(O)O)[C@@H](O)[C@@H]2O)c(=O)n1
inhibition [33]: 6%

CC(C)C(=O)OC[C@@]1(CCl)O[C@@H](n2ccc(N)nc2=O)[C@H](F)[C@@H]1OC(=O)C(C)C [LUMICITABINE]
EC50 [2]: 0.26 µM
CC50 [5]: > 100 µM
concentration [16]: 1480 nM
concentration [20]: 679 nM

Nc1ccn([C@@H]2O[C@](CCl)(COP(=O)(O)OP(=O)(O)OP(=O)(O)O)[C@@H](O)[C@H]2F)c(=O)n1
inhibition [27]: < 50%
inhibition [28]: < 50%
inhibition [29]: < 50%
inhibition [30]: < 50%
inhibition [31]: inactive
IC50 [32]: 0.02 µM

CC[C@]1(CO)O[C@@H](n2ccc(N)nc2=O)[C@H](F)[C@@H]1O
clearance [1]: 19.2 mL/min/kg
EC50 [2]: 0.42 µM
Drug metabolism [3]: 140 pmol
concentration [4]: 3310 nM
CC50 [5]: > 100 µM
half-life [6]: 1.23 h
Ratio [7]: 0.0005
concentration [8]: 144 nM
Drug metabolism [9]: 119 pmol
clearance [10]: 25.5 mL/min/kg
concentration [11]: 42.2 nM
clearance [12]: 34.1 mL/min/kg
AUC(0-inf) [13]: 4360 ng·h/mL
Vd [14]: 1.07 L/kg
Ratio [15]: 0.67
Vd [17]: 1.67 L/kg
Drug metabolism [18]: 85.1 pmol
AUC(0-inf) [19]: 3140 ng·h/mL
half-life [21]: 7.52 h
AUC(0-inf) [22]: 2460 ng·h/mL
Drug metabolism [23]: 489 pmol
concentration [24]: 3070 nM
half-life [25]: 1.34 h
Vd [26]: 1.8 L/kg

Nc1ccn([C@@H]2O[C@](CF)(COP(=O)(O)OP(=O)(O)OP(=O)(O)O)[C@@H](O)[C@H]2F)c(=O)n1
inhibition [27]: < 50%
inhibition [28]: < 50%
inhibition [29]: < 50%
Activity [34]: Active
inhibition [30]: < 50%
inhibition [31]: Active
IC50 [32]: 0.12 µM

CC[C@]1(COP(=O)(O)OP(=O)(O)OP(=O)(O)O)O[C@@H](n2ccc(N)nc2=O)[C@H](F)[C@@H]1O
inhibition [27]: < 50%
inhibition [28]: < 50%
inhibition [29]: < 50%
inhibition [30]: < 50%
inhibition [31]: inactive
IC50 [32]: 0.15 µM

Nc1ccn([C@@H]2O[C@](CCl)(COP(=O)(O)OP(=O)(O)OP(=O)(O)O)[C@@H](O)C2(F)F)c(=O)n1
inhibition [35]: 38%

Nc1ccn([C@@H]2O[C@@](CO)(CF)[C@@H](O)[C@H]2F)c(=O)n1
clearance [1]: 54.3 mL/min/kg
EC50 [2]: 0.16 µM
Drug metabolism [3]: 240 pmol
concentration [4]: 5580 nM
CC50 [5]: > 100 µM
Drug metabolism [9]: 27.9 pmol
clearance [10]: 2.69 mL/min/kg
AUC(0-inf) [13]: 1540 ng·h/mL
Ratio [15]: 3.39
Vd [17]: 1.87 L/kg
Drug metabolism [18]: 55 pmol
AUC(0-inf) [19]: 31800 ng·h/mL
half-life [21]: 7.66 h
Drug metabolism [23]: 153 pmol
concentration [24]: 374 nM
half-life [25]: 9.49 h
Vd [26]: 5.6 L/kg
